Data published in PubChem BioAssay AID1845199 (Molecular Pharmacology Branch, DTP, NCI, 2023).

System: 556581-035-R-J1 tumor spheroid viability, % test/control
Assay: Anticancer human tumor 556581-035-R-J1 patient-derived ovarian carcinoma cell line growth inhibition
Details: spheroids with HUVEC and MSC; for IC50: curve of first compound; for viability, T/C: stronger effect = lower value
In short: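 Complex spheroids of malignant cells with endothelial cells and mesenchymal stem cells; agents alone or combined, from near clinical Cmax (or 10 microM if unknown) down in half-log steps, 0.25% DMSO final.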

[1] = second compound 1 µM, first compound 0.0316 µM
[2] = second compound 1 µM, first compound 0.1 µM
[3] = second compound 1 µM, first compound 0.316 µM
[4] = second compound 1 µM, first compound 1 µM
[5] = second compound 1 µM, first compound 3.16 µM
[6] = second compound 1 µM, first compound 10 µM
[7] = second compound 3.16 µM, first compound 0.0316 µM
[8] = second compound 3.16 µM, first compound 0.1 µM
[9] = second compound 3.16 µM, first compound 0.316 µM
[10] = second compound 3.16 µM, first compound 1 µM
[11] = second compound 3.16 µM, first compound 3.16 µM
[12] = second compound 3.16 µM, first compound 10 µM
[13] = second compound 10 µM, first compound 0.0316 µM
[14] = second compound 10 µM, first compound 0.1 µM
[15] = second compound 10 µM, first compound 0.316 µM
[16] = second compound 10 µM, first compound 1 µM
[17] = second compound 10 µM, first compound 3.16 µM
[18] = second compound 10 µM, first compound 10 µM
[19] = second compound 31.6 µM, first compound 0.0316 µM
[20] = second compound 31.6 µM, first compound 0.1 µM
[21] = second compound 31.6 µM, first compound 0.316 µM
[22] = second compound 31.6 µM, first compound 1 µM
[23] = second compound 31.6 µM, first compound 3.16 µM
[24] = second compound 31.6 µM, first compound 10 µM
[25] = second compound 100 µM, first compound 0.0316 µM
[26] = second compound 100 µM, first compound 0.1 µM
[27] = second compound 100 µM, first compound 0.316 µM
[28] = second compound 100 µM, first compound 1 µM
[29] = second compound 100 µM, first compound 3.16 µM
[30] = second compound 100 µM, first compound 10 µM
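Note: spheroids exposed to compounds for 7 days before viability read.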

| SMILES | IC50 (second compound 1 µM) | IC50 (second compound 3.16 µM) | IC50 (second compound 10 µM) | IC50 (second compound 31.6 µM) | IC50 (second compound 100 µM) | viability, T/C [1] | viability, T/C [2] | viability, T/C [3] | viability, T/C [4] | viability, T/C [5] | viability, T/C [6] | viability, T/C [7] | viability, T/C [8] | viability, T/C [9] | viability, T/C [10] | viability, T/C [11] | viability, T/C [12] | viability, T/C [13] | viability, T/C [14] | viability, T/C [15] | also measured |
| --- | --- | --- | --- | --- | --- | --- | --- | --- | --- | --- | --- | --- | --- | --- | --- | --- | --- | --- | --- | --- | --- |
| CC(C)n1c(=O)n(C)c2cnc3cc(F)c(-c4ccc(OCCCN5CCCCC5)nc4)cc3c21 + Cn1nnc2c(C(N)=O)ncn2c1=O | > 10 µM | > 10 µM | > 10 µM | > 10 µM | > 10 µM | 109% | 109% | 109% | 106% | 98.5% | 70.2% | 101% | 112% | 101% | 112% | 96.6% | 62.3% | 102% | 109% | 105% | viability, T/C [16]: 104%; viability, T/C [17]: 95.5%; viability, T/C [18]: 67.3%; viability, T/C [19]: 108%; viability, T/C [20]: 106%; viability, T/C [21]: 103%; viability, T/C [22]: 112%; viability, T/C [23]: 92.7%; viability, T/C [24]: 65.8%; viability, T/C [25]: 105%; viability, T/C [26]: 106%; viability, T/C [27]: 99.6%; viability, T/C [28]: 101%; viability, T/C [29]: 90.1%; viability, T/C [30]: 69.1% |
| CC1COCCN1c1cc(-c2ccnn2C)c2ccnc(-c3ccn[nH]3)c2n1 (stereo not given) + Cn1nnc2c(C(N)=O)ncn2c1=O | 0.565 µM | 0.591 µM | 0.679 µM | 0.604 µM | 0.392 µM | 93.7% | 69.3% | 56.3% | 43.7% | 39.9% | 33% | 90.6% | 72.5% | 56.4% | 44.2% | 37.8% | 32.5% | 86.8% | 71% | 56% | viability, T/C [16]: 45.9%; viability, T/C [17]: 40%; viability, T/C [18]: 31.2%; viability, T/C [19]: 88.9%; viability, T/C [20]: 71.6%; viability, T/C [21]: 54.6%; viability, T/C [22]: 45.8%; viability, T/C [23]: 39.1%; viability, T/C [24]: 33.4%; viability, T/C [25]: 82.8%; viability, T/C [26]: 63.8%; viability, T/C [27]: 51.7%; viability, T/C [28]: 42.8%; viability, T/C [29]: 38.1%; viability, T/C [30]: 32.8% |
| COc1cc(C)[nH]c(=O)c1CN1CCc2c(Cl)cc(C(OC)C3COC3)c(Cl)c2C1=O (stereo not given) + Cn1nnc2c(C(N)=O)ncn2c1=O | > 10 µM | > 10 µM | > 10 µM | > 10 µM | > 10 µM | 105% | 102% | 117% | 109% | 107% | 102% | 99.3% | 113% | 100% | 107% | 105% | 105% | 105% | 106% | 106% | viability, T/C [16]: 112%; viability, T/C [17]: 111%; viability, T/C [18]: 104%; viability, T/C [19]: 115%; viability, T/C [20]: 118%; viability, T/C [21]: 110%; viability, T/C [22]: 107%; viability, T/C [23]: 108%; viability, T/C [24]: 108%; viability, T/C [25]: 112%; viability, T/C [26]: 107%; viability, T/C [27]: 106%; viability, T/C [28]: 115%; viability, T/C [29]: 114%; viability, T/C [30]: 103% |
| COc1ccc([C@@H](O)c2cc(-c3ncnc4cc(N5CCOCC5)ccc34)c(F)cc2Cl)nn1 + Cn1nnc2c(C(N)=O)ncn2c1=O | 2.65 µM | 2.55 µM | 3.06 µM | 2.81 µM | 3.03 µM | 115% | 111% | 100% | 70.2% | 47.7% | 34.2% | 105% | 114% | 102% | 71% | 47.4% | 36.2% | 126% | 121% | 113% | viability, T/C [16]: 76%; viability, T/C [17]: 51.9%; viability, T/C [18]: 38.2%; viability, T/C [19]: 125%; viability, T/C [20]: 123%; viability, T/C [21]: 114%; viability, T/C [22]: 76.9%; viability, T/C [23]: 48.5%; viability, T/C [24]: 36.2%; viability, T/C [25]: 129%; viability, T/C [26]: 122%; viability, T/C [27]: 117%; viability, T/C [28]: 76.8%; viability, T/C [29]: 51.6%; viability, T/C [30]: 39.3% |
| Cc1cc(C)c(CNC(=O)c2cc(-c3ccc(CN4CCOCC4)cc3)cc3c2cnn3C2CCCC2)c(=O)[nH]1 + Cn1nnc2c(C(N)=O)ncn2c1=O | > 10 µM | > 10 µM | > 10 µM | > 10 µM | > 10 µM | 105% | 107% | 110% | 103% | 110% | 88% | 107% | 108% | 112% | 108% | 108% | 88.2% | 118% | 118% | 111% | viability, T/C [16]: 121%; viability, T/C [17]: 114%; viability, T/C [18]: 93.6%; viability, T/C [19]: 115%; viability, T/C [20]: 105%; viability, T/C [21]: 116%; viability, T/C [22]: 108%; viability, T/C [23]: 110%; viability, T/C [24]: 86.1%; viability, T/C [25]: 113%; viability, T/C [26]: 116%; viability, T/C [27]: 107%; viability, T/C [28]: 122%; viability, T/C [29]: 109%; viability, T/C [30]: 84.8% |
| [2H]c1nc(C)nc([2H])c1-c1cc(NC[C@@H](C)c2cccc3c(C(=O)NC)ccnc23)ncn1 + Cn1nnc2c(C(N)=O)ncn2c1=O | > 10 µM | > 10 µM | > 10 µM | > 10 µM | > 10 µM | 111% | 111% | 106% | 112% | 108% | 112% | 98.7% | 104% | 106% | 115% | 119% | 113% | 105% | 103% | 115% | viability, T/C [16]: 112%; viability, T/C [17]: 113%; viability, T/C [18]: 115%; viability, T/C [19]: 116%; viability, T/C [20]: 109%; viability, T/C [21]: 115%; viability, T/C [22]: 119%; viability, T/C [23]: 116%; viability, T/C [24]: 112%; viability, T/C [25]: 115%; viability, T/C [26]: 114%; viability, T/C [27]: 116%; viability, T/C [28]: 114%; viability, T/C [29]: 108%; viability, T/C [30]: 114% |
